{
  "source": "patent US7192924B2",
  "about": "“Corticotropin releasing factor 2 receptor agonists” (priority 2002, dated 2007)",
  "key": {"[1]": {"target": "T1, CRF2R (Homo sapiens, UniProt Q13324)", "T1 sequence (Q13324 1-411)": "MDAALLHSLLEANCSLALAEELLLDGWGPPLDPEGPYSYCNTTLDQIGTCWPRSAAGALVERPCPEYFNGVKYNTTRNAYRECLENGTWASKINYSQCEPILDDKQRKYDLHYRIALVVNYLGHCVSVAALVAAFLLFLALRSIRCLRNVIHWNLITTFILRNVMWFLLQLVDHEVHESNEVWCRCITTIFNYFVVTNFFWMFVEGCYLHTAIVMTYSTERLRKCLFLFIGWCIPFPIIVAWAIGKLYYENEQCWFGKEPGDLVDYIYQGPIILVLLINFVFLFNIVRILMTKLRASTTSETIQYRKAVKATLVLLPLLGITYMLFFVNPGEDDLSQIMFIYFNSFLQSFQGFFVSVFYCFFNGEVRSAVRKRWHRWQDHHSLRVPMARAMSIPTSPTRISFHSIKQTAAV", "test": "CRF2R agonist activity (EC50, Emax), called comparative CRF binding", "assay_type": "cell-based", "conditions": "read-out: CRF2R EC50", "in_short": "(§1)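 Agonism is judged from increased cAMP, measured either directly in lysates or through reporter genes under a cAMP responsive element. Cells or membranes express only the receptor of interest, and vehicle-treated cells serve as control.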"}, "[2]": {"target": "T2, CRF1R (Homo sapiens, UniProt P34998)", "T2 sequence (P34998 24-415)": "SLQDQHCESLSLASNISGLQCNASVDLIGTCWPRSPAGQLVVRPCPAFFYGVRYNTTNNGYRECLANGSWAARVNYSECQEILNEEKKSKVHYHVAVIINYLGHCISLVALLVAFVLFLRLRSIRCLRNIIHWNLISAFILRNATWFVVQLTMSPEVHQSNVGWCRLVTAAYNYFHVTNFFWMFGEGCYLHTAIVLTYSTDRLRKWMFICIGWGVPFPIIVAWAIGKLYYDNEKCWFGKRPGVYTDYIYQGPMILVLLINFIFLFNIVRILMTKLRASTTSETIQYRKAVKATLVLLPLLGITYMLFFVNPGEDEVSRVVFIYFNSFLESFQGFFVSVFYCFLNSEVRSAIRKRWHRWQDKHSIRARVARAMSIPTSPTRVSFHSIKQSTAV", "test": "CRF1R agonist activity (EC50, Emax), called comparative CRF binding", "assay_type": "cell-based", "conditions": "read-out: CRF1R EC50", "in_short": "as §1"}},
  "note": "Ends that are not written are not given here. Peptide text beside a SMILES is read from it.",
  "data": [
    {"compound": "CC[C@H](C)[C@H](N)C(=O)N[C@H](C(=O)N[C@@H](CC(C)C)C(=O)N[C@@H](CO)C(=O)N[C@@H](CC(C)C)C(=O)N[C@@H](CC(=O)O)C(=O)N[C@H](C(=O)N1CCC[C@H]1C(=O)N[C@H](C(=O)NCC(=O)N[C@@H](CC(C)C)C(=O)N[C@@H](CC(C)C)C(=O)N[C@@H](CCC(N)=O)C(=O)N[C@H](C(=O)N[C@@H](CC(C)C)C(=O)N[C@@H](CC(C)C)C(=O)N[C@@H](CCC(=O)O)C(=O)N[C@@H](CCC(N)=O)C(=O)N[C@@H](C)C(=O)N[C@@H](CCCNC(=N)N)C(=O)N[C@@H](C)C(=O)N[C@@H](CCCNC(=N)N)C(=O)N[C@@H](C)C(=O)N[C@@H](C)C(=O)N[C@@H](CCCNC(=N)N)C(=O)N[C@@H](CCC(=O)O)C(=O)N[C@@H](CCC(N)=O)C(=O)N[C@@H](C)C(=O)N[C@H](C(=O)N[C@H](C(=O)N[C@@H](CC(N)=O)C(=O)N[C@@H](C)C(=O)N[C@@H](CCCNC(=N)N)C(=O)N[C@H](C(=O)N[C@@H](CC(C)C)C(=O)N[C@@H](C)C(=O)N[C@@H](CCCNC(=N)N)C(=O)N[C@H](C(=O)N[C@@H](CCSC)C(N)=O)C(C)C)[C@@H](C)CC)[C@@H](C)O)[C@@H](C)O)[C@@H](C)CC)[C@@H](C)CC)C(C)C)C(C)C", "note": "[compound 368] (H-IVLSLDVPIGLLQILLEQARARAAREQATTNARILARVM-NH2)", "values": [
      {"measurement": "EC50", "setting": "[1]", "result": 0.0504, "unit": "µM"},
      {"measurement": "EC50", "setting": "[2]", "result": "≥ 1", "unit": "µM"}
    ]},
    {"compound": "CC[C@H](C)[C@H](N)C(=O)N[C@H](C(=O)N[C@@H](CC(C)C)C(=O)N[C@@H](CO)C(=O)N[C@@H](CC(C)C)C(=O)N[C@@H](CC(=O)O)C(=O)N[C@H](C(=O)N1CCC[C@H]1C(=O)N[C@H](C(=O)N[C@@H](Cc1c[nH]cn1)C(=O)N[C@@H](CC(C)C)C(=O)N[C@@H](CC(C)C)C(=O)N[C@@H](CCC(N)=O)C(=O)N[C@H](C(=O)N[C@@H](CC(C)C)C(=O)N[C@@H](CC(C)C)C(=O)N[C@@H](CCC(=O)O)C(=O)N[C@@H](CCC(N)=O)C(=O)N[C@@H](C)C(=O)N[C@@H](CCCNC(=N)N)C(=O)N[C@@H](C)C(=O)N[C@@H](CCCNC(=N)N)C(=O)N[C@@H](C)C(=O)N[C@@H](C)C(=O)N[C@@H](CCCNC(=N)N)C(=O)N[C@@H](CCC(=O)O)C(=O)N[C@@H](CCC(N)=O)C(=O)N[C@@H](C)C(=O)N[C@H](C(=O)N[C@H](C(=O)N[C@@H](CC(N)=O)C(=O)N[C@@H](C)C(=O)N[C@@H](CCCNC(=N)N)C(=O)N[C@H](C(=O)N[C@@H](CC(C)C)C(=O)N[C@@H](C)C(=O)N[C@@H](CCCNC(=N)N)C(=O)N[C@H](C(N)=O)C(C)C)[C@@H](C)CC)[C@@H](C)O)[C@@H](C)O)[C@@H](C)CC)[C@@H](C)CC)C(C)C)C(C)C", "note": "[compound 371] (H-IVLSLDVPIHLLQILLEQARARAAREQATTNARILARV-NH2; N-terminus assumed)", "values": [
      {"measurement": "EC50", "setting": "[1]", "result": 0.00662, "unit": "µM"},
      {"measurement": "EC50", "setting": "[2]", "result": "≥ 1", "unit": "µM"}
    ]},
    {"compound": "CC[C@H](C)[C@H](NC(=O)[C@H](CCCNC(=N)N)NC(=O)[C@H](C)NC(=O)[C@H](CC(N)=O)NC(=O)[C@H](CCC(N)=O)NC(=O)[C@H](CCC(=O)O)NC(=O)[C@H](C)NC(=O)[C@H](CCCNC(=N)N)NC(=O)[C@H](CCC(=O)O)NC(=O)[C@H](CCCNC(=N)N)NC(=O)[C@H](CCC(N)=O)NC(=O)[C@H](CO)NC(=O)[C@H](CCC(N)=O)NC(=O)[C@@H](NC(=O)[C@H](CCCCN)NC(=O)[C@H](CCC(=O)O)NC(=O)[C@H](CC(C)C)NC(=O)[C@H](CCC(=O)O)NC(=O)[C@H](CC(C)C)NC(=O)[C@H](CC(C)C)NC(=O)[C@@H](NC(=O)[C@H](CCCNC(=N)N)NC(=O)[C@H](CC(C)C)NC(=O)[C@H](CC(C)C)NC(=O)[C@H](CC(C)C)NC(=O)[C@H](CC(C)C)NC(=O)[C@@H]1CCCN1C(=O)[C@@H](NC(=O)[C@H](CC(=O)O)NC(=O)[C@@H](NC(=O)[C@H](CO)NC(=O)[C@H](CC(C)C)NC(=O)[C@H](CO)NC(=O)[C@@H]1CCCN1C(=O)[C@H](CC(N)=O)NC(=O)[C@@H](N)CC(=O)O)[C@@H](C)CC)C(C)C)[C@@H](C)O)[C@@H](C)O)C(=O)N[C@@H](Cc1ccccc1)C(=O)N[C@@H](C)C(=O)N[C@@H](CCCNC(=N)N)C(=O)N[C@H](C(N)=O)C(C)C", "note": "[compound 384] (H-DNPSLSIDVPLLLLRTLLELEKTQSQRERAEQNARIFARV-NH2; N-terminus assumed)", "values": [
      {"measurement": "EC50", "setting": "[1]", "result": 0.0071, "unit": "µM"},
      {"measurement": "EC50", "setting": "[2]", "result": "≥ 1", "unit": "µM"}
    ]},
    {"compound": "HHHHHHIVLSLDVPIGLLQILLEQARARAAREQATTNARILARN-NH2 [compound 296]", "values": [
      {"measurement": "EC50", "setting": "[1]", "result": 0.00666, "unit": "µM"},
      {"measurement": "EC50", "setting": "[2]", "result": "≥ 0.1", "unit": "µM"}
    ]},
    {"compound": "NDDPPISIDLPFFLLRNMIEMARIENEREQAGLNAKYLAEV-NH2 [compound 264]", "values": [
      {"measurement": "EC50", "setting": "[1]", "result": "≥ 0.1", "unit": "µM"},
      {"measurement": "EC50", "setting": "[2]", "result": 0.704, "unit": "µM"}
    ]},
    {"compound": "NDDPPISIDLPFHLLRNMIEMARIENEREQAGLNAKYLAEV-NH2 [compound 262]", "values": [
      {"measurement": "EC50", "setting": "[1]", "result": "≥ 0.1", "unit": "µM"},
      {"measurement": "EC50", "setting": "[2]", "result": 0.408, "unit": "µM"}
    ]},
    {"compound": "NDDPPISIDLPFYLLRNMIEMARIENEREQAGLNAKYLAEV-NH2 [compound 261]", "values": [
      {"measurement": "EC50", "setting": "[1]", "result": "≥ 0.1", "unit": "µM"},
      {"measurement": "EC50", "setting": "[2]", "result": 0.274, "unit": "µM"}
    ]},
    {"compound": "NDDPPISIDLPLFLLRNMIEMARIENEREQAGLNAKYLAEV-NH2 [compound 257]", "values": [
      {"measurement": "EC50", "setting": "[1]", "result": "≥ 0.1", "unit": "µM"},
      {"measurement": "EC50", "setting": "[2]", "result": 0.745, "unit": "µM"}
    ]},
    {"compound": "NDDPPISIDLPLHLLRNMIEMARIENEREQAGLNAKYLAEV-NH2 [compound 259]", "values": [
      {"measurement": "EC50", "setting": "[1]", "result": "≥ 0.1", "unit": "µM"},
      {"measurement": "EC50", "setting": "[2]", "result": 0.82, "unit": "µM"}
    ]},
    {"compound": "SQEPPISLDLTFHLLREVLEQARARAAREQATTNARILARV-NH2 [compound 157]", "values": [
      {"measurement": "EC50", "setting": "[1]", "result": 0.042, "unit": "µM"},
      {"measurement": "EC50", "setting": "[2]", "result": "≥ 0.1", "unit": "µM"}
    ]}
  ]
}
